From publication PMC9238271, “The quorum sensing peptide EntF* promotes colorectal cancer metastasis in mice: a new factor in the host-microbiome interaction” (BMC Biology, 2022)
Entries after “also recorded” stand apart in the source; their conditions may differ.

Assays:
[1] = system: E-cadherin expression in HT-29 cells; assay: Western blot of E-cadherin expression, HT-29 cells; assay type: cell-based
Method: HCT-8, HT-29, and HT-116 cells were grown in DMEM medium supplied with 10% fetal bovine serum (FBS) and 1% penicillin-streptomycin. Caco-2 cells were grown in DMEM medium supplied with 10% FBS, 1% non-essential amino acid NEAA), and 1% penicillin-streptomycin. Cells were cultured at 37 °C and 5% CO2. As cells reached confluency, they were detached using 0.25% Trypsin-EDTA.
For Western blot analyses, HCT-8 (n = 15), HCT-116 (n = 12), Caco-2 (n = 6), and HT-29 (n = 12) cells were seeded in 6-well plates at a density of 1 × 10^6 cells/well. Twenty-four hours after seeding, all cell lines were treated with 1 μM EntF* or a placebo solution. HCT-8 cells were also tested for responsiveness to 1 μM EntF* synthetic alanine-derived analogs. For antagonist activity analysis, HCT-8 cells were treated with 1 μM Nef-M1 or 1 μM EntF*A1 alone or in combination with 500 nM EntF*. After 24 h, cells were detached from the surface and lysed in RIPA buffer (Thermo Scientific). Protein concentration was determined using the modified Lowry protein assay kit (Thermo Scientific), according to the manufacturer’s instructions. Protein samples were diluted to the same concentration (4 μg/μL) with water and diluted again 1:1 using 2x Laemmli buffer. After that, samples were boiled for 5 min at 95 °C to denature proteins and centrifuged for 5 min at 16,000g; supernatants were used for Western blot analyses. Equal amounts of total protein (20 μg/lane) were separated by SDS-PAGE on an Any kD^TM gel (Bio-Rad ) and then transferred to a PVDF membrane. Before incubation with antibodies, non-specific binding sites on the membranes were blocked using 5% skimmed milk solution (1 h). TBS buffer with 0.05% Tween 20 was used for all washing steps. Membranes were incubated overnight at 4 °C with an anti-E-cadherin primary antibody (1/1000 dilution). An HRP-conjugated anti-rabbit antibody (1/2000 dilution, 1 h incubation) was used for chemiluminescent detection. Membranes were incubated with the detection substrate for 5 min and signal detection was performed using the ChemiDoc EZ imager and Image Lab software (Bio-Rad). […]

[2] = system: luciferase-transfected HCT-8/E11 cells injected into the cecal wall; assay: Orthotopic mouse model of colorectal cancer: weekly bioluminescent imaging; assay type: in vivo, female athymic nude mice (Swiss nu/nu)
Method: All in vivo experiments were performed according to the Ethical Committee principles of laboratory animal welfare, approved by our institute (Ghent University, Faculty of Medicine and Health Sciences, approval number ECD 17-90). Mice were maintained in a sterile environment under controlled conditions (light–dark cycle with light from 7:00 h to 17:00 h, temperature 21–25 °C and humidity 45–65%). Before the experiment, mice were allowed to acclimate to the abovementioned conditions for a minimum of 7 days.
Six-week-old female athymic nude mice (Swiss nu/nu) were anesthetized, and a minimally invasive midline laparotomy was performed to localize the cecum. The cecum was then gently pulled out, and luciferase-transfected HCT-8/E11 cells (1 × 10^6 cells) in 20 μL serum-free DMEM medium with Matrigel (1:1) were injected into the cecal wall. Before implantation, cells were treated with EntF* (10^2 nM), Phr0662 (10^2 nM), vehicle (PBS), or TGFα positive control (0.1 μg mL^−1) solutions for 5 days. The cecum was then carefully placed back into the abdominal cavity and the surgical incision was closed with two layers of sutures with PDS 6-0. […] Once a week, mice were examined for tumor growth and metastases using bioluminescent imaging with the IVIS Lumina II (Perkin Elmer, Belgium) after i.p. injection with 200 μL luciferin (150 mg kg^−1). After 6 weeks, mice were euthanized using cervical dislocation, and the liver, diaphragm, lungs, cecum, duodenum, and peritoneum were macroscopically examined for the presence of tumor nodules. Liver and lung tissues were then fixed in formalin for 24 h and stored in 70% ethanol for maximum 3 days before embedding in paraffin. Next, a hematoxylin and eosin (H&E) staining was performed on 8 μm sections, and 3 sections per mouse were visualized using microscopy. Slides from tumor-bearing mice were analyzed by two blinded, independent investigators using the scoring system described in Additional file 5: Table S3. In case of differences, slides were scored by a third blinded, independent investigator for consensus.
The Kolmogorov-Smirnov test was used to assess if data obtained were normally distributed. For sample size n < 10, non-parametric tests (Mann-Whitney U test) were performed directly. Slope comparison was based on linear regression analysis. Bootstrapped medians and Hedges G-values were used to calculate the effect size when sample sizes were different between the groups.

SMILES: CC(C)C[C@@H]1NC(=O)[C@H](CO)NC(=O)[C@H](Cc2ccccc2)NC(=O)[C@H](C(C)C)NC(=O)[C@@H](NC(=O)[C@H](CCC(=O)O)NC(=O)[C@@H](NC(=O)[C@H](CC(C)C)NC(=O)[C@H](CC(N)=O)NC(=O)[C@@H](N)CO)C(C)C)CSSC[C@@H](C(=O)N[C@@H](CC(N)=O)C(=O)O)NC(=O)[C@H](CCCCN)NC(=O)[C@H](CCCCN)NC(=O)[C@H](Cc2ccccc2)NC1=O (single isomer, unassigned) [EntF*]
- effect on E-cadherin expression in HT-29 cells ([1]; 1 μM EntF* or CXCL12, 24 h, n = 12): statistically significant reduction
- Relative E-cadherin expression, average ([1]; HT-29 cells, average of n = 12): 73.7
- effect size class by Hedges' G, bioluminescence ([2]; after a 6-week treatment, compared to the placebo group): medium to large effect
- effect size: increase in bioluminescence compared to the placebo ([2]; after a 6-week treatment, bootstrapped median): 79%
- luciferase activity / tumor growth compared to the vehicle ([2]; daily i.p. over 6 weeks, linear regression slope comparison): statistically significant increase; also recorded: significant increase in tumor growth
